We go through 24 compounds from article PMC6767403, “8‐Hydroxyquinolines are bactericidal against Mycobacterium tuberculosis” (Drug Development Research, 2019).

One may read the IC50 as the point on the concentration scale where inhibition reaches its midpoint.

Converted amounts (≈) assume the structure as drawn. Where two headings read alike, the source gives them in different places.

For one data set, the system named is M. tuberculosis H37Rv. As to the kind of experiment: microbe, parasite or virus in culture. The format is cell-based, Mycobacterium tuberculosis.
Data set [1] has as its system HepG2 human liver cells. The data set is described as follows: HepG2 cytotoxicity, CellTiter-Glo, 72 hr. As to conditions: HepG2, 72 h, read-out: HepG2 IC50. In general terms: Cellular ATP, detected with luciferase, serves as a proxy for viable cell number.
Data set [2] is described as follows: Vero cell cytotoxicity, CellTiter-Glo, 2 days. The format is cell-based. The note with it: African green monkey, 2 days exposure. On the procedure:
Vero cells (CCL81) were cultured in high‐glucose Dulbecco's modified Eagle medium with GlutaMax (Invitrogen), 10% v/v fetal bovine serum, 50 units/mL penicillin, and 50 μg/mL streptomycin. Cells were exposed to compounds for 2 days and viability was determined using CellTiter‐Glo (Promega).

A further data set has as its system M. tuberculosis. As to the kind of experiment: Kill kinetics against replicating M. tuberculosis (CFU). The format is cell-based, Mycobacterium tuberculosis. As to conditions: replicating conditions; for bactericidal activity (in words): 7H9-OADC-Tw medium, 1× to 10× MIC.
The test system of data set [3] is HepG2 human liver cells.
The mark [4] stands for this setting: Mycobacterium tuberculosis, H37RV, 120 h, […], mean ± SD (n in parentheses), read-out: MIC.

On to `Cc1ccc(O)c2ncccc12` [Compound 2], for which the MIC in the data set on M. tuberculosis H37Rv (setting [4]) turned out to be 3.1 ± 1.1 µM (≈ 0.493 µg/mL). Moreover, in the data set with HepG2 human liver cells [1], the IC50 came out at 6.5 ± 1.7 µM. Further, the IC50 at 2 days in data set [2] (Vero cells (CCL81)) is 1.4 µM.

As for `Oc1cccc2ccc(N3CCCCC3)nc12` [Compound 15], the “anti-tubercular activity (in words)” value with M. tuberculosis H37Rv is on record as “loss of activity”. Also, the MIC in the data set with M. tuberculosis H37Rv (setting [4]) was more than 20 µM. In addition, the IC50 in the data set with HepG2 human liver cells [1] was more than 100 µM. Besides, the IC50 at 2 days in data set [2] (Vero cells (CCL81)) was more than 50 µM.

As for `Cc1ccc2cccc(O)c2n1` [Compound 11], the “anti-tubercular activity (in words)” value in the data set on M. tuberculosis H37Rv was “not tolerated”. The MIC in the data set with M. tuberculosis H37Rv (setting [4]) is more than 20 µM. The IC50 with HepG2 human liver cells [1] is 28 ± 9 µM. The IC50 at 2 days in data set [2] (Vero cells) is 12 µM.

With `Oc1cccc2ccc(Nc3ccccc3)nc12` [Compound 16], in the data set with M. tuberculosis H37Rv, the “anti-tubercular activity (in words)” value is “loss of activity”. The MIC with M. tuberculosis H37Rv (setting [4]) was more than 20 µM. Moreover, in the data set on HepG2 human liver cells [1], the IC50 worked out at 3.8 ± 0.45 µM. The compound also gave an IC50 at 2 days in data set [2] (Vero cells (CCL81)) of 0.94 µM.

For the compound `Oc1cccc2cccnc12` [Compound 1, 8‐hydroxyquinoline], the MIC with M. tuberculosis H37Rv is 3.6 ± 0.20 (2) μM; with M. tuberculosis H37Rv (Mycobacterium tuberculosis, H37RV, 120 h), 3.6 µM (≈ 0.523 µg/mL). The IC50 with HepG2 human liver cells [1] was found to be 7.6 ± 0.68 µM. The compound further gave an IC50 at 2 days in data set [2] (Vero cells) of 1.4 µM.

As to `Oc1c(Cl)cc(Cl)c2cccnc12` [Compound 5], the MIC is 8.4 µM (≈ 1.8 µg/mL) with M. tuberculosis H37Rv (setting [4]) and 8.4 ± 4.5 (6) μM with M. tuberculosis H37Rv ([…], mean ± SD (n in parentheses)). Also, in the data set on HepG2 human liver cells [1], the IC50 was determined as 7.6 ± 1.2 µM. The compound also gave an IC50 at 2 days in data set [2] (Vero cells (CCL81)) of 1.3 µM.

As to `Nc1ccc2cccc(O)c2n1` [Compound 12], the “anti-tubercular activity (in words)” value in the data set with M. tuberculosis H37Rv was “retained measurable anti‐tubercular activity”. In addition, the MIC with M. tuberculosis H37Rv (setting [4]) was 4.6 ± 1.7 µM (≈ 0.737 µg/mL). Also, the IC50 with HepG2 human liver cells [1] came to 12 ± 0.5 µM. This compound returned an IC50 at 2 days in data set [2] (Vero cells) of 3.3 µM.

As to `Oc1ccc(Br)c2cccnc12` [Compound 3], the MIC with M. tuberculosis H37Rv (setting [4]) amounted to 2.9 ± 0.4 µM (≈ 0.65 µg/mL). In the data set with HepG2 human liver cells [1], the IC50 is 6.9 ± 0.59 µM. The same compound came in with an IC50 at 2 days in data set [2] (Vero cells (CCL81)) of 1.8 µM.

Regarding `COc1cccc(/C=C/c2ccc3cccc(O)c3n2)c1` [Compound 21], in the data set with M. tuberculosis H37Rv (setting [4]), the MIC came to 8.7 ± 0.2 µM (≈ 2.41 µg/mL). Besides, the IC50 with HepG2 human liver cells [1] came to 10 ± 1 µM. The compound also gave an IC50 at 2 days in data set [2] (Vero cells (CCL81)) of 2.9 µM.

With `Oc1ccc(CN2CCN(c3ccc(F)cc3)CC2)c2cccnc12` [Compound 9], in the data set with M. tuberculosis H37Rv, the “anti-tubercular activity (in words)” value is “abrogated the anti‐tubercular activity”. In addition, the MIC with M. tuberculosis H37Rv (setting [4]) is more than 20 µM. Also, the IC50 in the data set with HepG2 human liver cells [1] amounted to 9.8 ± 2.2 µM. The same compound gave an IC50 at 2 days in data set [2] (Vero cells (CCL81)) of 5.8 µM.

For `CNc1ccc2cccc(O)c2n1` [Compound 13], the “anti-tubercular activity (in words)” value in the data set on M. tuberculosis H37Rv is “retained measurable anti‐tubercular activity”. Also, the MIC in the data set on M. tuberculosis H37Rv (setting [4]) worked out at 6.4 ± 0.35 µM (≈ 1.11 µg/mL). In addition, in the data set on HepG2 human liver cells [1], the half-inhibitory concentration (IC50) stood at 22 ± 2.8 µM. This compound also gave an IC50 at 2 days in data set [2] (Vero cells (CCL81)) of 8.2 µM.

With `OCc1ccccc1CN1CCN(Cc2ccc3cccc(O)c3n2)CC1` [Compound 26], the “anti-tubercular activity (in words)” value in the data set with M. tuberculosis H37Rv is on record as “not tolerated”. In addition, in the data set on M. tuberculosis H37Rv (setting [4]), the MIC is more than 20 µM. In the data set with HepG2 human liver cells [1], the IC50 was 14 ± 0.5 µM. Also, in data set [2] (Vero cells (CCL81)), the IC50 at 2 days turned out to be 11 µM.

As for `Oc1ccc(COC2CCCCC2)c2cccnc12` [Compound 7], the MIC in the data set on M. tuberculosis H37Rv (setting [4]) is 3.2 ± 0.85 µM (≈ 0.823 µg/mL). In the data set on HepG2 human liver cells [1], the IC50 worked out at 4.9 ± 1.9 µM. In data set [2] (Vero cells (CCL81)), this compound came in with an IC50 at 2 days of 6.2 µM.

Regarding `Oc1cccc2ccc(/C=C/c3ccc4c(c3)OCO4)nc12` [Compound 23], the MIC in the data set with M. tuberculosis H37Rv (setting [4]) is 15 ± 5 µM (≈ 4.37 µg/mL). The IC50 with HepG2 human liver cells [1] was 9.1 ± 3 µM. This compound also yielded an IC50 at 2 days in data set [2] (Vero cells (CCL81)) of 6 µM.

In the case of `CC(=O)Nc1ccc2cccc(O)c2n1` [Compound 17], the “anti-tubercular activity (in words)” value with M. tuberculosis H37Rv is listed as “not tolerated”. Besides, the MIC in the data set on M. tuberculosis H37Rv (setting [4]) is more than 20 µM. For the same compound, in the data set with HepG2 human liver cells [1], the IC50 came out at 9 ± 1 µM. Besides, in data set [2] (Vero cells (CCL81)), the IC50 at 2 days is 4.9 µM.

Turning to `Cc1cc(C)n(-c2ccc3cccc(O)c3n2)n1` [Compound 19], in the data set with M. tuberculosis H37Rv (setting [4]), the MIC is more than 20 µM. Moreover, in the data set with HepG2 human liver cells [1], the half-inhibitory concentration (IC50) turned out to be 12 ± 0.5 µM. The IC50 at 2 days in data set [2] (Vero cells (CCL81)) turned out to be 19 µM.

As for `Oc1cccc2ccc(/C=C/c3cccc(F)c3)nc12` [Compound 24], the MIC with M. tuberculosis H37Rv (setting [4]) is 13 ± 6.3 µM (≈ 3.45 µg/mL). In the data set on HepG2 human liver cells [1], the IC50 was 8 ± 0.6 µM. Also, the IC50 at 2 days in data set [2] (Vero cells (CCL81)) stood at 7.2 µM. Moreover, the “bactericidal activity (in words)” value in the data set with M. tuberculosis is listed as “bactericidal”. The “log kill (sterilized the culture)” value with M. tuberculosis (27 μM (10× MIC), within 14 days) was more than 4 log. Further, in the data set with M. tuberculosis (concentrations above 14 μM (5× MIC)), the “logs of bacteria killed” value is recorded as not below 2 logs.

Turning to `CN(C)c1ccc2cccc(O)c2n1` [Compound 14], the “anti-tubercular activity (in words)” value in the data set with M. tuberculosis H37Rv is on record as “loss of activity”. For the same compound, the MIC with M. tuberculosis H37Rv (setting [4]) was more than 20 µM. In addition, the IC50 with HepG2 human liver cells [1] is more than 100 µM. The same compound yielded a 50% inhibitory concentration (IC50) at 2 days in data set [2] (Vero cells (CCL81)) of more than 50 µM.

For `O=[N+]([O-])c1ccc(O)c2ncccc12` [Compound 6], the MIC in the data set with M. tuberculosis H37Rv (setting [4]) came out at 4.8 ± 3.3 µM (≈ 0.913 µg/mL). Moreover, in the data set on HepG2 human liver cells [1], the IC50 is 7.7 ± 1.8 µM. In data set [2] (Vero cells (CCL81)), this compound gave an IC50 at 2 days of 2.9 µM.

Consider `Oc1ccc(CNc2cccc(Br)c2)c2cccnc12` [Compound 8], for which, in the data set with M. tuberculosis H37Rv, the “anti-tubercular activity (in words)” value is “abrogated the anti‐tubercular activity”. Besides, the MIC in the data set on M. tuberculosis H37Rv (setting [4]) was more than 20 µM. Further, the IC50 in the data set on HepG2 human liver cells [1] was determined as 12 ± 0.5 µM. For the same compound, the IC50 at 2 days in data set [2] (Vero cells (CCL81)) is 7.5 µM.

For `Oc1ccc(Cl)c2cccnc12` [Compound 4], the MIC in the data set on M. tuberculosis H37Rv (setting [4]) stood at 3 ± 1 µM (≈ 0.539 µg/mL). Besides, the IC50 with HepG2 human liver cells [1] is 7.6 ± 1.5 µM. For the same compound, in data set [2] (Vero cells (CCL81)), half-maximal inhibition (IC50 at 2 days) required 2.4 µM. For the same compound, in the data set with M. tuberculosis, the “bactericidal activity (in words)” value was “bactericidal”. In the data set with M. tuberculosis (12 μM (2.5× MIC) and higher, within 14 days), the “logs of bacteria killed” value is reported as not below 3 logs.

As to `[O-][n+]1cccc2cccc(O)c21` [Compound 10], the “anti-tubercular activity (in words)” value with M. tuberculosis H37Rv is given as “loss of activity”. Besides, the MIC in the data set on M. tuberculosis H37Rv (setting [4]) is more than 20 µM. The concentration for half-maximal inhibition (IC50) with HepG2 human liver cells [1] was less than 88 µM. The compound also showed an IC50 at 2 days in data set [2] (Vero cells (CCL81)) of more than 20 µM. Besides, the “cytotoxicity against HepG2 cells (in words)” value in the data set with HepG2 human liver cells [3] was “significant reduction of cytotoxicity”.

With `COc1ccccc1/C=C/c1ccc2cccc(O)c2n1` [Compound 22], the MIC in the data set with M. tuberculosis H37Rv (setting [4]) was 13 ± 9.1 µM (≈ 3.61 µg/mL). Further, in the data set with HepG2 human liver cells [1], the IC50 was determined as 12 ± 2 µM. In data set [2] (Vero cells (CCL81)), this compound displayed an IC50 at 2 days of 6.2 µM.

As to `Oc1cccc2ccc(/C=C/c3ccccc3Cl)nc12` [Compound 25], the MIC in the data set on M. tuberculosis H37Rv (setting [4]) is 5.8 ± 2.2 µM (≈ 1.63 µg/mL). Also, the IC50 with HepG2 human liver cells [1] came out at 12 ± 1 µM. The compound further gave an IC50 at 2 days in data set [2] (Vero cells (CCL81)) of 9 µM.
